Measured values as given in article doi:10.1101/2023.07.01.547317v1 (biorxiv, 2023).

Molecular target: MoIcl1 (Pyricularia oryzae, UniProt P0CT06)
Experiment: biochemical
Assay type: binding

Chain of MoIcl1 (P0CT06 whole entry, looked up): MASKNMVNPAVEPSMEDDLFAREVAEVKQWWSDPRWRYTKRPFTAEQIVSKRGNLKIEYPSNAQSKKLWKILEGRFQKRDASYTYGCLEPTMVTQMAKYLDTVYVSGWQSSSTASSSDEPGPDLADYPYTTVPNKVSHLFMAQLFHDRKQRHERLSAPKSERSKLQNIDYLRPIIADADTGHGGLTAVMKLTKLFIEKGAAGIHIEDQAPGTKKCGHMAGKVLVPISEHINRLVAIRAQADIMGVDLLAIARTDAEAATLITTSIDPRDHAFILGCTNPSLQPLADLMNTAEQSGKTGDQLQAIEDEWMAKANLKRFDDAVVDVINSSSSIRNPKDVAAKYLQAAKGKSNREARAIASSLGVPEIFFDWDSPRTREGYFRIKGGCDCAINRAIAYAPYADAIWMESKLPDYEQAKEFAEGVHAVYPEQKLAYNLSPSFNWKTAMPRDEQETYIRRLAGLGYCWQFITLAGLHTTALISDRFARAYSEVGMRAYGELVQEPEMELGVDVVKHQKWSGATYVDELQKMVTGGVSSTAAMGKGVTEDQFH

`COc1ccc2[nH]cc(CCNC(C)=O)c2c1` [melatonin, N-acetyl-5-methoxytryptamine] was tested. Which Kd did it give?
The Kd was 287 µM.
